The source of these data is US11578080B2, “Thienopyrimidones” (Boehringer Ingelheim International GmbH, priority 2019, dated 2023).

Series [1] in a line: Assay B: Microsomal clearance. In kind it is in vitro ADME, human. The settings on record: pooled liver microsomes, 1 μM test compound, 37° C. As for the experimental part: Assay B: Microsomal Clearance:
The metabolic degradation of the test compound is assayed at 37° C. with pooled liver microsomes. The final incubation volume of 100 μl per time point contains TRIS buffer pH 7.6 at RT (0.1 M), magnesium chloride (5 mM), microsomal protein (1 mg/ml) and the test compound at a final concentration of 1 μM.
Following a short preincubation period at 37° C., the reactions are initiated by addition of beta-nicotinamide adenine dinucleotide phosphate, reduced form (NADPH, 1 mM) and terminated by transferring an aliquot into solvent after different time points (0, 5, 15, 30, 60 min). Additionally, the NADPH-independent degradation is monitored in incubations without NADPH, terminated at the last time point. The [%] remaining test compound after NADPH independent incubation is reflected by the parameter c(control) (metabolic stability). The quenched incubations are pelleted by centrifugation (10000 g, 5 min).
An aliquot of the supernatant is assayed by LC-MS/MS for the amount of parent compound. The half-life (t½ INVITRO) is determined by the slope of the semilogarithmic plot of the concentration-time profile.
The intrinsic clearance (CL_[…]) is calculated by considering the amount of protein in the incubation: CL_[…] [μl/min/mg protein]=(Ln 2/(half-life [min]*protein content [mg/ml]))*1000 CL_[…]_INVIVO [ml/min/kg]=(CL_[…] [μL/min/mg protein]×MPPGL [mg protein/g liver]×liver factor [g/kg body weight])/1000 Qh [%]=CL [ml/min/kg]/hepatic blood flow [ml/min/kg])
(§1) Hepatocellularity, human: 120×10e6 cells/g liver
(§2) Liver factor, human: 25.7 g/kg bodyweight
(§3) Blood flow, human: 21 ml/(min×kg)
(Liver microsomes are vesicles of endoplasmic reticulum, rich in cytochrome P450 enzymes.)

The target of series [2] is human TRPA1 ion channel (Homo sapiens (Human), UniProt O75762). Briefly: Assay A: TRPA1 assay (FLIPR calcium, AITC agonism, HEK293 over-expressing human TRPA1). It counts as cell-based. The settings on record: HEK293 over-expressing human TRPA1, AITC 10 μM, FLIPRtetra; read-out: hTRPA1 IC50. The procedure:
A human HEK293 cell line over-expressing the human TRPA1 ion channel (Perkin Elmer, Product No. AX-004-PCL) was used as a test system for compound efficacy and potency. Compound activity was determined by measuring the effect of compounds on intracellular calcium concentration induced by AITC (Allylisothiocyanat) agonism in a FLIPRtetra system (Molecular Devices).
The cells were obtained as frozen cells in cryo-vials and stored until use at −150° C. Cells were grown in culture medium (MEM/EBSS medium with 10% FCS and 0.4 mg/ML Geneticin). […] For sub-culturing cells were detached from flasks by Versene. At the day before the assay, cells were detached, washed twice with medium (MEM/EBSS medium with 10% FCS) and 20000 cells in 20 μl/well were seeded to Poly D-Lysin biocoated 384-well plates (black, clear bottom, Cat. 356697) from Corning. Plates were incubated for 24 hours at 37° C./5% CO2 before use in the assay.
The test compounds were dissolved in 100% DMSO at a concentration of 10 mM and in a first step diluted in DMSO to a concentration of 5 mM, followed by serial dilution steps in 100% DMSO. Dilution factor and number of dilution steps may vary according to needs. Typically 8 different concentrations by 1:5 dilutions were prepared, further intermediate dilutions (1:20) of the substances were carried out with HBSS/HEPES buffer (1×HEPES, Cat. 14065 from Gibco, 20 mM HEPES, Cat. 83264 from SIGMA, 0.1% BSA Cat. 11926 from Invitrogen, pH 7,4
At the assay day cells were washed 3× with assay puffer, 20 μL buffer remained in the wells after washing. 10 μL Ca6 kit (Cat. R8191 MolecularDevices) loading buffer in HBSS/HEPES was added to the cells and the plates were incubated with lid for 120 minutes at […]. 10 μL of compound or controls in HBSS/HEPES buffer/5% DMSO from the intermediate dilution plate were carefully added to the wells. […] Finally 10 μL of the agonist AITC 50 μM dissolved in HBSS/HEPES buffer/0.05% DMSO (final concentration 10 μM) was added to the wells followed by an additional read on the FLIPRtetra device for 10 minutes. The area under the signal curve (AUC) after AITC addition was used for IC50/% inhibition calculations
Data Evaluation and Calculation:
Each assay microtiter plate contained wells with vehicle (1% DMSO) controls instead of compound as controls for AITC induced luminescence (100% CTL; high controls) and wells with vehicle controls without AITC as controls for non-specific changes in luminescence (0% CTL; low controls).
The analysis of the data was performed by the calculation of the area under signal curve of the individual wells. Based on this values the % value for the measurement of each substance concentration was calculated (AUC(sample)−AUC(low))*100/(AUC(high)−AUC(low)) using MegaLab software (in house development). The IC50 values were calculated from the % control values using MegaLab software. Calculation: [y=(a−d)/(1+(x/c)^b)+d], a=low value, d=high value; x=cone M; c=IC50 M; b=hill; y=% ctrl

Series [3] is described as follows: Assay C: Hepatocyte clearance. It counts as in vitro ADME, human. To be noted: hepatocyte suspension, 1 μM test compound. The procedure:
Assay C: Hepatocyte Clearance
The metabolic degradation of the test compound is assayed in a hepatocyte suspension. Hepatocytes (cryopreserved) are incubated in. Dulbecco's modified eagle medium (supplemented with 3.5 μg glucagon/500 mL, 2.5 mg insulin/500 mL and 3.75 mg/500 mL hydrocortison) containing 5% or 50% species serum.
Following a 30 min preincubation in an incubator (37° C., 10% CO2) 5 μl of test compound solution (80 μM; from 2 mM in DMSO stock solution diluted 1:25 with medium) are added into 395 μl hepatocyte suspension (cell density in the range 0.25-5 Mio cells/mL depending on the species, typically 1 Mio cells/mL; final concentration of test compound 1 μM, final DMSO concentration 0.05%).
The cells are incubated for six hours (incubator, orbital shaker) and samples (25 μl) are taken at 0, 0.5, 1, 2, 4 and 6 hours. Samples are transferred into acetonitrile and pelleted by centrifugation (5 min). The supernatant is transferred to a new 96-deepwell plate, evaporated under nitrogen and resuspended.
Decline of parent compound is analyzed by HPLC-MS/MS
CLint is calculated as follows CL_[…]=Dose/AUC=(C0/CD)/(AUD+clast/k)×1000/60. CO: initial concentration in the incubation [μM], CD: cell density of vital cells [10e6 cells/mL], AUD: area under the data [μM×h], clast: concentration of last data point [μM], k: slope of the regression line for parent decline [h-1].
The calculated in vitro hepatic intrinsic clearance can be scaled up to the intrinsic in vivo hepatic Clearance and used to predict hepatic in vivo blood clearance (CL) by the use of a liver model (well stirred model). CL_[…]_INVIVO [ml/min/kg]=(CL_[…] [μL/min/10e6 cells]×hepatocellularity [10e6 cells/g liver]×liver factor [g/kg body weight])/1000 CL [ml/min/kg]=CL_[…]_INVIVO [ml/min/kg]×hepatic blood flow [ml/min/kg]/(CL_[…]_INVIVO [ml/min/kg]+hepatic blood flow [ml/min/kg]) Qh [%]=CL [ml/min/kg]/hepatic blood flow [ml/min/kg])
as §1, §2, §3

SMILES strings stand for the structures.

human TRPA1 ion channel, sequence (O75762 whole entry): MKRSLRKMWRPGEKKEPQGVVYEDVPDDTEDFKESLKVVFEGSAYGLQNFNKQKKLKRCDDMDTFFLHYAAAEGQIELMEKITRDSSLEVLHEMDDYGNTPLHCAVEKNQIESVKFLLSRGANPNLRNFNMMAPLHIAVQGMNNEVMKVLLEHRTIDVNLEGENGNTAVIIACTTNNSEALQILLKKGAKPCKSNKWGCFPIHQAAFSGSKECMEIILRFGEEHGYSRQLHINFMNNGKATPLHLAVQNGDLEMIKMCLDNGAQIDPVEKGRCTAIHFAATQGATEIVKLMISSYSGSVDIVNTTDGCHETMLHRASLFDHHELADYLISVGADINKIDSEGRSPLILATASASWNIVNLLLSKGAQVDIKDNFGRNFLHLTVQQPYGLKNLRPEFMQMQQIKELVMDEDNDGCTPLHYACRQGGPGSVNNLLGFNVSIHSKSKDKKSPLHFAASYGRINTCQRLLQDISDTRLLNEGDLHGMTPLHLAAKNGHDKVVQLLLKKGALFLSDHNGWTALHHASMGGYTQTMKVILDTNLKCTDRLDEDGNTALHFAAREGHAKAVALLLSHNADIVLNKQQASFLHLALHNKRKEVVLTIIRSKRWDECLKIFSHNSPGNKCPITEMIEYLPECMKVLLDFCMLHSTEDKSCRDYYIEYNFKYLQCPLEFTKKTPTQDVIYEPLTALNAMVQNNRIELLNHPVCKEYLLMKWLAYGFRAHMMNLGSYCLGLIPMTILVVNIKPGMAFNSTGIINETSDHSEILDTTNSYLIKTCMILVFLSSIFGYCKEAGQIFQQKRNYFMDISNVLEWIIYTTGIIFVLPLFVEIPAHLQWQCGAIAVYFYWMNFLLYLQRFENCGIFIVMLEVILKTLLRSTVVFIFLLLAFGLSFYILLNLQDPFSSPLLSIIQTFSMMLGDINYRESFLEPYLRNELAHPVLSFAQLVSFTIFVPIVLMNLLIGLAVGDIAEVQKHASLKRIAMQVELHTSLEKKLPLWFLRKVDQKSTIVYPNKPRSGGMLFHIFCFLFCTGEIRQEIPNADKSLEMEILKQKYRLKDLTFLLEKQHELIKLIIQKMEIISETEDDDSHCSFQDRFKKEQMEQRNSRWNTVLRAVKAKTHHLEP

As for `Cc1c(C(N)=O)sc2ncn(Cc3nnn(C[C@H](O)c4ccc(Cl)cc4)n3)c(=O)c12` [Example 1, 3-({2-[(2R)-2-(4-chlorophenyl)-2-hydroxyethyl]-2H-1,2,3,4-tetrazol-5-yl}methyl)-5-methyl-4-oxo-3H,4H-thieno[2,3-d]pyrimidine-6-carboxamide], the “human LM [% Qh]” value in series [1] is less than 23 % Qh. Also, the IC50 (usually the concentration needed to halve the response being measured) in series [2] stood at 11 nM. Besides, in series [3], the “human Hepatocytes [% Qh]” value worked out at 12 % Qh.
Taken in the same sequence, the figures for `Cc1c(C(N)=O)sc2ncn(Cc3nnn(C[C@H](O)c4ccc(Br)cc4)n3)c(=O)c12` [Example 2] were less than 23 % Qh, 12 nM and 13 % Qh.
For `Cc1c(C(N)=O)sc2ncn(Cc3nnn(C[C@H](O)c4cc5cc(Cl)ccc5o4)n3)c(=O)c12` [Example 3], in that order: less than 23 % Qh, 12 nM and 40 % Qh.
Taken in the same sequence, the figures for `Cc1c(C(N)=O)sc2ncn(Cc3nnn(C[C@H](O)c4ccc(Cl)s4)n3)c(=O)c12` [Example 4] were less than 23 % Qh, 12 nM and 7 % Qh.
Take `Cc1c(C(N)=O)sc2ncn(Cc3nnn(C[C@H](O)c4ccc(F)c(F)c4)n3)c(=O)c12` [Example 5]: in series [1], the “human LM [% Qh]” value is given as less than 23 % Qh. Further, the IC50 in series [2] was determined as 74 nM.
`CN1CCc2c(sc3ncn(Cc4nnn(C[C@H](O)c5ccc(Cl)cc5)n4)c(=O)c23)C1=O` [Example 7]: the “human LM [% Qh]” value in series [1] was 36 % Qh. Besides, the IC50 in series [2] amounted to 16 nM. Moreover, in series [3], the “human Hepatocytes [% Qh]” value worked out at 26 % Qh.
Taken in the same sequence, the figures for `Cc1c(C(N)=O)sc2ncn(Cc3nnn(C[C@H](O)c4cc5ccc(Cl)cc5o4)n3)c(=O)c12` [Example 8] were 43 % Qh, 15 nM and 36 % Qh.
Taken in the same sequence, the figures for `Cc1ccc([C@@H](O)Cn2nnc(Cn3cnc4sc(C(N)=O)c(C)c4c3=O)n2)cc1` [Example 9] were less than 23 % Qh, 21 nM and 16 % Qh.
Taken in the same sequence, the figures for `Cc1c(C(N)=O)sc2ncn(Cc3nnn(C[C@H](O)c4ccc5c(c4)OCO5)n3)c(=O)c12` [Example 10] were less than 23 % Qh, 28 nM and 14 % Qh.
Turning to `Cc1c(C(N)=O)sc2ncn(Cc3nnn(C[C@H](O)c4cc5cc(F)ccc5o4)n3)c(=O)c12` [Example 11], in series [1], the “human LM [% Qh]” value was less than 23 % Qh. In series [2], the IC50 was 25 nM. The “human Hepatocytes [% Qh]” value in series [3] came to 28 % Qh.
For `Cc1c(C(N)=O)sc2ncn(Cc3nnn(C[C@H](O)c4cc5ccc(F)cc5o4)n3)c(=O)c12` [Example 12], in that order: less than 23 % Qh, 17 nM and 31 % Qh.
For `CNC(=O)c1sc2ncn(Cc3nnn(C[C@H](O)c4ccc(Cl)cc4)n3)c(=O)c2c1C` [Example 13], the “human LM [% Qh]” value in series [1] was less than 23 % Qh. In addition, the IC50 in series [2] is 20 nM. Also, the “human Hepatocytes [% Qh]” value in series [3] was 9 % Qh.
Taken in the same sequence, the figures for `CNC(=O)c1sc2ncn(Cc3nnn(C[C@H](O)c4ccc5c(c4)OCO5)n3)c(=O)c2c1C` [Example 14] were less than 23 % Qh, 76 nM and 13 % Qh.
Taken in the same sequence, the figures for `CNC(=O)c1sc2ncn(Cc3nnn(C[C@H](O)c4ccc(C)cc4)n3)c(=O)c2c1C` [Example 15] were less than 23 % Qh, 38 nM and 18 % Qh.
Taken in the same sequence, the figures for `CNC(=O)c1sc2ncn(Cc3nnn(C[C@H](O)c4ccc(Cl)s4)n3)c(=O)c2c1C` [Example 16] were less than 23 % Qh, 37 nM and 17 % Qh.
`O=C1NCCc2c1sc1ncn(Cc3nnn(C[C@H](O)c4ccc(Cl)s4)n3)c(=O)c21` [Example 17]: in series [1], the “human LM [% Qh]” value was less than 23 % Qh. Also, the IC50 in series [2] amounted to 14 nM. Also, the “human Hepatocytes [% Qh]” value in series [3] was determined as 22 % Qh.
For `O=C1NCCc2c1sc1ncn(Cc3nnn(C[C@H](O)c4cc5cc(Cl)ccc5o4)n3)c(=O)c21` [Example 18], in that order: 32 % Qh, 14 nM and 48 % Qh.
Taken in the same sequence, the figures for `O=C1NCCc2c1sc1ncn(Cc3nnn(C[C@H](O)c4cc5cc(F)ccc5o4)n3)c(=O)c21` [Example 19] were less than 23 % Qh, 31 nM and 26 % Qh.
For `Cc1ccc([C@@H](O)Cn2nnc(Cn3cnc4sc5c(c4c3=O)CCNC5=O)n2)cc1` [Example 20], in that order: less than 23 % Qh, 14 nM and 28 % Qh.
With `N#Cc1ccc([C@@H](O)Cn2nnc(Cn3cnc4sc5c(c4c3=O)CCNC5=O)n2)s1` [Example 21], in series [1], the “human LM [% Qh]” value was 27 % Qh. In series [2], the IC50 turned out to be 80 nM. The “human Hepatocytes [% Qh]” value in series [3] is given as 5 % Qh.
